Where no end group is shown, it is not given here.
What was measured:
[1] = tested on: Vero cells; assay: Maximum non-toxic dose test (cell proliferation assay); type: cell-based
Method: Vero cells were seeded at 1 × 10^4 cells per well in triplicate in 96 well plates and propagated at optimal conditions (37°C, 5% CO2 in humidified incubator). Recombinant RC-1 was diluted to serial concentrations (37.5, 75, 100, 125, 150 and 175 μM) with DMEM media supplemented with 2% FBS. Each dilution was tested in triplicate. Two control wells were included in each experiment: culture medium without RC-1 and culture medium with different concentrations of the RC-1 in the absence of cells to subtract the background value of RC-1 in the culture medium. The cell cultures were analyzed at 24, 48 and 72 hours using Non-Radioactive Cell Proliferation assay (Promega, USA) according to the manufacturer’s instructions.
(§1) Figure 5 The percentage of viral reduction in Vero cells after different treatments with RC-1. (A) RC-1 was diluted to various concentrations (37.5, 75, 100, 125, 150 and 175 μM) with DMEM media supplemented with 2 % FBS and added to the cell culture. The viability of cells was analyzed at 24, 48 and 72 hrs using Non-Radioactive Cell Proliferation assay. (B) The cells were grown under the optimal conditions and infected with DENV-2 at the MOI of 2. The MNTD of RC-1 (150 μM) was used to treat infected Vero cells and the results were normalized with infected cells without RC-1 as controls. Pre, simultaneous and post-infection treatments with RC-1 were applied at 24, 48 and 72 hrs of each infection. The percentage of inhibition was the highest for simultaneous treatment compared to pre and post-treatment. (Two way ANOVA was used with Bonferroni post-test, P < 0.0001).

[2] = molecular target: T1, dengue NS2B-NS3pro (Dengue virus type 2, UniProt P29990); assay: Fluorogenic NS2B-NS3pro protease inhibition assay; type: biochemical, DENV-2; settings: pH 8.5, 200 mM Tris–HCl, 20 μM Boc-Gly-Arg-Arg-AMC, 2 μM enzyme, 30 min pre-incubation, 30 min reaction, fluorescence ex 350/em 440 nm, triplicates, ± SD
T1 construct: 6XHis (pQE30 vector) (N); made in house; host or cells: Escherichia coli XL1-Blue
Method: The bioassay used in this study was published by Rothan and co-workers. In brief, endpoint reaction mixtures with total volume of 200 μl were prepared consisted of 20 μM fluorogenic peptide substrate (Boc-Gly-Arg-Arg-AMC), 2 μM of recombinant NS2B-NS3pro, with or without RC-1 of varying concentrations, buffered at pH 8.5 with 200 mM Tris–HCl. The RC-1 was initially prepared in Tris–HCl buffer and assayed at five different concentrations, ranging from 9.3 - 150 μM. Three types of reactions which are buffer, buffer with enzyme and buffer with enzyme and different concentrations of RC-1were incubated at 28°C, 37°C and 40°C for 30 minutes. Subsequently, the substrate was added to each reaction mixture and incubated at same temperatures for another 30 minutes. Measurements were performed in triplicates using Tecan Infinite M200 Pro fluorescence spectrophotometer. Substrate cleavage was normalized against buffer only (control) and optimized at the emission at 440 nm upon excitation at 350 nm. The readings were then used for calculating Km values of peptide substrate and IC50 values of peptide inhibitors using non-linear regression models in GraphPad Prism 5.0 software as previously described.
Figure 4 The inhibition potential of RC-1 against the activity of DENV-2 NS2B-NS3pro. End point protease inhibition assay was carried out to evaluate the inhibitory potential of RC-1 against the protease’s ability to cleave a fluorogenic peptide substrate (Boc-Gly-Arg-Arg-AMC). The reaction mixtures consisted of 20 μM substrate, 2 μM of enzyme, with or without RC-1 of varying concentrations incubated at 28°C, 37°C or 40°C for 30 minutes. The results were normalized with the substrate alone and substrate with protease incubated at same temperatures. […] 2'; read as 1.2

[3] = tested on: different cell lines; settings: up to 500 μg/ml (250 μM); cited from earlier work
Description: (§2) It has been known that the compound toxicity could hinder the development of drugs against dengue virus.

[4] = up to 500 μg/ml (250 μM); cited from earlier work
Description: as §2

[5] = cited from earlier work
Description: We conducted this study to evaluate the effect of RC-1, a cationic cyclic peptide on the activity of dengue protease as a target to inhibit replication of dengue virus. The RC-1 was produced inexpensively as a soluble recombinant peptide in E. coli and the tri-disulphide bonds were correctly reformed in alkaline and diluted environment. […] Furthermore, this peptide is able to provide long-lasting prote ...

[6] = tested on: DENV-2 in Vero cells; assay: DENV-2 RNA reduction in infected Vero cells by real-time PCR; type: cell-based; settings: for reduction in viral replication / reduction in total viral RNA copies: 150 μM RC-1, MOI of 2; for reduction in total viral RNA copies: ± SD
Method: Three independent experiments were carried out for pre, simultaneous and post-infection treatments with RC-1 at 24, 48 and 72 hrs of each infection in triplicates. Vero cells were grown in a 24-well tissue culture plate (1 × 10^5 cells/well), incubated 24 hrs under optimal conditions and infected with DENV-2 (MOI of 2). For pre-treatment infection, 150 μM of RC-1 was added to the cells before virus inoculation and incubated for 24 hrs. Afterwards, DENV-2 supernatant was added, followed by incubation for 1 hr with gentle shaking every 10 min for optimal virus to cells contact. The virus supernatant was removed, and the cells were washed twice with fresh serum-free DMEM media to remove residual virus. New complete DMEM media were added and the cultures were incubated for 24, 48 and 72 hrs at 37°C, supplemented with 5% CO2. Same applications were used for simultaneous treatment infection except the peptide was mixed with the virus supernatant and incubated at 37°C for 1 h, and then inoculated onto Vero cells. The post-treatment infection was carried out after inoculation of Vero cells with DENV-2 and the complete DMEM medium was added containing the RC-1. Then, the cultures were incubated for 24, 48 and 72 hrs at 37°C and 5% CO2 with three wells of infected cells in each experiment were kept without RC-1 as controls. Cellular supernatants were collected and stored at −80°C for viral quantification using real time PCR.
For quantification of copy number of DENV-2 RNA, the standard curve was generated by 10-fold serial dilution of known copies of DENV-2 RNA. Viral RNA was extracted from culture supernatant using QIAmp viral RNA mini kit (Qiagen, Germany) according to the manufacturer’s instructions. A fragment located at the 5'UTR region of the virus genome was used to generate the primers. One-step RT-PCR using SyBr Green Master Kit (Qiagen, Germany) was used to conduct absolute quantification using ABI7300 machine from Applied Biosystems (Foster City, CA). The PCR profile was 1 cycle of 50°C for 2 min, 1 cycle of 95°C for 10 min, 40 cycles of 10 sec denaturation at 95°C, 20 sec annealing at 57.7°C with a single fluorescence emission measurement and 30 sec extension at 72°C, followed by 5 min at 72°C for final extension. Dissociation curve analysis was added to the end of each run. Results were analyzed using the company's Sequence Detection Software Version 1.3.
as §1

[7] = tested on: yeast (Saccharomyces cerevisiae); assay: Disc diffusion susceptibility test, yeast; type: cell-based; settings: 0.1 mg/ml RC-1, YPD agar, 30°C, clear circular zone
Method: (§3) The disc diffusion susceptibility test was used to evaluate antimicrobial activity of the recombinant RC-1. The samples of recombinant RC-1 before and after refolding applications (100 μg/ml) were dropped onto a filter paper discs (0.1 mg/ml) and left to dry at room temperature. Then, the filters paper discs placed on an E. coli-inoculated Mueller-Hinton agar and a Saccharomyces cerevisiae inoculated yeast extract peptone dextrose (YPD) agar plates. Both E. coli and yeast inoculated plates were inoculated for 16 hrs at […] and 30°C, respectively.
(§4) Figure 2 Antimicrobial activity of recombinant RC-1 after refolding. Each sample of RC-1 before and after refolding (0.1 mg/ml) was dropped on filter papers discs and left to dry at room temperature. The dry filter paper discs were placed on E. coli and yeast-inoculated antibiotic-free Mueller-Hinton-gar and YPD-agar plates respectively and incubated overnight at 37°C (E. coli) or 30°C (yeast).

[8] = tested on: E. coli; assay: Disc diffusion susceptibility test, E. coli; type: cell-based; settings: 0.1 mg/ml RC-1, Mueller-Hinton agar, clear circular zone
Method: as §3, §4

Q: With “GICRCICGRGICRCICGR (also: bicyclic or more (positions not given here)) [RC-1, retrocyclin-1, disulphide cyclic peptide, theta-defensin analogue, circular, cationic, tri-disulphide bonded (Cys3-Cys16, Cys5-Cys14, Cys7-Cys12)]” as the sequence, how does the cellular morphological abnormalities ([1]; Vero cells) read?
A: Its cellular morphological abnormalities is “no noticeable cellular morphological abnormalities”.

Q: And the “cellular toxicity (in words)” value ([1]; Vero cells, 150 μM)?
A: Its value is “low cellular toxicity”.

Q: And the “maximum non-toxic dose (MNTD)” value ([1]; all three incubation periods, 24, 48 and 72 hrs, 37.5-175 μM tested, DMEM 2% FBS, triplicate)?
A: Its value is 150 µM.

Q: What about the IC50 ([2]; 28°C) of the same sequence?
A: The IC50 was 46.1 ± 1.7 µM.

Q: What about the IC50 ([2]; 37°C) of the same sequence?
A: Its IC50 is 21.4 ± 1.6 µM.

Q: And the IC50 ([2]; 40°C)?
A: Its IC50 is 14.1 ± 1.2 µM.

Q: What about the “cytotoxicity in different cell lines” value [3] of the same sequence?
A: Its value is “neither haemolytic activity nor cytotoxicity”.

Q: What about the haemolytic activity [4] of the same sequence?
A: The haemolytic activity was “neither haemolytic activity nor cytotoxicity”.

Q: What about the “fold potency of cyclic RC-1 over the open chain analogue” value [5] of the same sequence?
A: The value was 3 fold.

Q: What about the “reduction in viral replication” value ([6]; post-treatment, 48 hrs, triplicates) of the same sequence?
A: The value was 30%.

Q: What about the “reduction in viral replication” value ([6]; post-treatment, 72 hrs, triplicates) of the same sequence?
A: The value was 45%.

Q: What about the “viral replication (in words)” value ([6]; pre, simultaneous and post infection treatment modes, maximum non-toxic dose) of the same sequence?
A: The value was “significantly declined”.

Q: What about the “reduction in viral replication” value ([6]; pre-treatment (24 hrs before virus), 48 hrs, triplicates) of the same sequence?
A: Its value is 40%.

Q: And the “reduction in viral replication” value ([6]; pre-treatment (24 hrs before virus), 72 hrs, triplicates)?
A: The value was 38%.

Q: And the “reduction in total viral RNA copies” value ([6]; simultaneous treatment, 24 hrs, triplicates)?
A: The value was 45.5% ± 4.2.

Q: What about the “reduction in viral replication” value ([6]; simultaneous treatment, 72 hrs) of the same sequence?
A: Its value is 85%.

Q: What about the “reduction in total viral RNA copies” value ([6]; simultaneous treatment, 72 hrs, triplicates) of the same sequence?
A: The value was 85% ± 7.1.

Q: And the antimicrobial activity [7]?
A: Its antimicrobial activity is “exhibited antimicrobial activity”.

Q: And the antimicrobial activity [8]?
A: Its antimicrobial activity is “exhibited antimicrobial activity”.
